Assay results taken from patent US20150284342A1, “BIS(FLUOROALKYL)-1,4-BENZODIAZEPINONE COMPOUNDS” (BRISTOL-MYERS SQUIBB COMPANY, priority 2011, published 2015).
Where two headings read alike, the source gives them in different places.

Experiments:
Notch 1 = assay: Notch-CBF1 Transactivation Assay (Notch 1); type: cell-based
Excerpt: (§1) Table 12 denotes respective DNA quantity for the transfections.
(§2) Duplicates were used for each sample.

[1] = High Throughput (HT) Metabolic Stability Panel, human liver microsomes
Protocol: (§3) Each compound was tested in duplicate.

Notch 3 = assay: Notch-CBF1 Transactivation Assay (Notch 3); type: cell-based
Excerpt: as §1, §2

[2] = High Throughput (HT) Metabolic Stability Panel, mouse liver microsomes
Protocol: as §3

[3] = read-out: Notch 1 (IC50), HeLa cells, luciferase, rounded to 2 digits
[4] = 0.5 μM compound, human liver microsomes, 10 min incubation
[5] = read-out: Notch 3 (IC50), HeLa cells, luciferase, rounded to 2 digits
[6] = 0.5 μM compound, mouse liver microsomes, 10 min incubation
[7] = HeLa cells, luciferase, rounded to 2 digits, read-out: Notch 1 (IC50)
[8] = HeLa cells, luciferase, rounded to 2 digits, read-out: Notch 3 (IC50)

Compound | IC50 (Notch 1; [3]) | 0.5 μM HLM (% Remaining) [1, 4] | IC50 (Notch 3; [5]) | 0.5 μM MsLM (% Remaining) [2, 6] | IC50 (Notch 1; [7]) | 0.5 μM HLM (% Remaining) ([1]; human, microsomes, 10 min, 0.5 µM, pH 7.4) | IC50 (Notch 3; [8]) | 0.5 μM MsLM (% Remaining) ([2]; mouse, microsomes, 10 min, 0.5 µM, pH 7.4)
CC(C)C[C@@H](C(=O)N[C@H]1N=C(c2ccccc2)c2ccccc2N(C)C1=O)[C@H](CCC(F)(F)F)C(N)=O [Comparative Compound 22, reference compound] | 64 nM | 39% | 48 nM | 15% | – | – | – | –
C=CC[C@H](C(N)=O)[C@@H](CC(C)C)C(=O)N[C@H]1N=C(c2ccccc2)c2cc(Cl)ccc2N(C)C1=O [Comparative Compound 23, reference compound] | – | 19% | – | 9.0% | – | – | – | –
CCCC[C@H](C(N)=O)[C@@H](CC(C)C)C(=O)N[C@H]1N=C(c2ccc(Cl)cc2)c2ccccc2N(C)C1=O [Comparative Compound 24, reference compound] | – | 21% | – | 13% | – | – | – | –
C=CC[C@H](C(N)=O)[C@@H](CC(C)C)C(=O)N[C@H]1N=C(c2ccccc2)c2ccccc2N(CCC)C1=O [Comparative Compound 25, reference compound] | – | 2.7% | – | 0.18% | – | – | – | –
CN1C(=O)[C@@H](NC(=O)[C@H](CC(F)(F)F)[C@H](CCC(F)(F)F)C(N)=O)N=C(c2ccccc2)c2ccccc21 [Example 3, (2R,3S)—N-((3S)-1-Methyl-2-oxo-5-phenyl-2,3-dihydro-1H-1,4-benzodiazepin-3-yl)-2-(2,2,2-trifluoroethyl)-3-(3,3,3-trifluoropropyl)succinamide] | 3.1 nM | 84% | 4.7 nM | 91% | – | – | – | –
CN1C(=O)[C@@H](NC(=O)[C@H](CCC(F)(F)F)[C@H](CC(F)(F)F)C(N)=O)N=C(c2ccccc2)c2ccccc21 [Example 4, (2R,3S)—N-((3S)-1-Methyl-2-oxo-5-phenyl-2,3-dihydro-1H-1,4-benzodiazepin-3-yl)-3-(2,2,2-trifluoroethyl)-2-(3,3,3-trifluoropropyl)succinamide] | 1.5 nM | 100% | 2.5 nM | 91% | – | – | – | –
[2H]C([2H])([2H])N1C(=O)[C@@H](NC(=O)[C@H](CCC(F)(F)F)[C@H](CCC(F)(F)F)C(N)=O)N=C(c2ccccc2)c2ccccc21 [Example 5, (2R,3S)—N-((3S)-1-(^2H3)Methyl-2-oxo-5-phenyl-2,3-dihydro-1H-1,4-benzodiazepin-3-yl)-2,3-bis(3,3,3-trifluoropropyl)succinamide] | – | – | – | – | 1.2 nM | 100% | 5.9 nM | 98%
CN1C(=O)[C@@H](NC(=O)[C@H](CCC(F)(F)F)[C@H](CCC(F)(F)F)C(N)=O)N=C(c2ccccc2)c2cc(Cl)ccc21 [Example 6, (2R,3S)—N-((3S)-7-chloro-1-methyl-2-oxo-5-phenyl-2,3-dihydro-1H-1,4-benzodiazepin-3-yl)-2,3-bis(3,3,3-trifluoropropyl)succinamide] | 6.5 nM | 100% | 10 nM | 100% | – | – | – | –
COc1ccc2c(c1)N(C)C(=O)[C@@H](NC(=O)[C@H](CCC(F)(F)F)[C@H](CCC(F)(F)F)C(N)=O)N=C2c1ccccc1 [Example 7, (2R,3S)—N-((3S)-8-methoxy-1-methyl-2-oxo-5-phenyl-2,3-dihydro-1H-1,4-benzodiazepin-3-yl)-2,3-bis(3,3,3-trifluoropropyl)succinamide] | – | 93% | – | 72% | 1.5 nM | – | 2.8 nM | –
CN1C(=O)[C@@H](NC(=O)[C@H](CCC(F)(F)F)[C@H](CCC(F)(F)F)C(N)=O)N=C(c2ccccc2)c2ccc(F)cc21 [Example 8, (2R,3S)—N-((3S)-8-fluoro-1-methyl-2-oxo-5-phenyl-2,3-dihydro-1H-1,4-benzodiazepin-3-yl)-2,3-bis(3,3,3-trifluoropropyl)succinamide] | 4.9 nM | 96% | 8.1 nM | 100% | – | – | – | –
COc1ccc2c(c1)C(c1ccccc1)=N[C@H](NC(=O)[C@H](CCC(F)(F)F)[C@H](CCC(F)(F)F)C(N)=O)C(=O)N2C [Example 9, (2R,3S)—N-((3S)-7-methoxy-1-methyl-2-oxo-5-phenyl-2,3-dihydro-1H-1,4-benzodiazepin-3-yl)-2,3-bis(3,3,3-trifluoropropyl)succinamide] | 4.4 nM | 100% | 8.2 nM | 87% | – | – | – | –
